How the values were obtained:
[1] = person per day; cited from earlier work
P450scc = P450scc protein level in testis by Western blot, Example 1; assay type: in vivo; settings: rat testis, diet with MK-4 75 mg/kg for 35 days, vs control dietary group (FIG. 3)
Description: (§1) In the breeding method, preparatory breeding was performed in which the rats have free access to feed and water for three to five days. A commercially-available solid feed (product name: MR Labostock by Nosan Corp.) was used. Each experimental diet group includes four rats that were colony-bred in a wire mesh cage. After the preparatory breeding, the rats were fed respective experimental diets and bred for 35 days with free access to feed and water. Blood samples were taken, and testes were removed.
Testes of each of the above-described group that had been stored at −80° C. after dissection were used. Anti-P450scc antibodies were purchased from Chemicon International, Inc.
While being iced in 1 ml of 1× Phosphate buffered saline (PBS, including 10 μl of 100 mM phenyl methane sulfonyl fluoride [PMSF]), 0.2 g of testes were homogenized in the Polytron homogenizer (Biotron). […] A portion of the tissue homogenate was used to determine the quantity of protein. […]
One milliliter of ECLTM Western blotting detection reagent (Amersham Corp.) was poured over the entire membrane. […] Luminescent signals were picked up by an Las-1000 Imaging System (Fujifilm Corp.) and quantity was determined using ImageGauge (trademark) image processing software.
Protein concentration in the tissue homogenates was measured by the Bradford method. […]

[2] = Testis vitamin K analog concentration by HPLC-reduction fluorescence, Example 1 (35-day diet); assay type: in vivo, rat; settings: rats, diet with MK-4 75 mg/kg for 35 days, vs low K and control dietary groups (FIG. 1)
Description: Experimental animals: ordinary rats (Wistar/Std, eight-week-old males)
as §1
One gram of tissue was precisely measured and placed in a stoppered brown centrifuge tube. Two milliliters of 66% IPA solution was added. The sample was then homogenized in a Polytron homogenizer (Biotron) on ice. […]
The vitamin K homologues in the prepared HPLC sample are non-fluorescent, oxidized types. […] Quantities of the vitamin K groups were determined by an HPLC-reduction fluorescence method that measures fluorescence intensity of the sample. The vitamin K groups were determined as a relative value of MK-3 that was the internal standard.
In the method, the HPLC-reduction fluorescence method is used in which the non-fluorescent, oxidized type vitamin K groups become fluorescent, reduced types through use of the platinum catalyst column. The fluorescence intensity of the vitamin K groups was measured. […]

[3] = Testis vitamin K concentration, Example 2; assay type: in vivo, rat; settings: rats, 75 mg/kg in diet, 35 days (FIG. 7), P<0.05
Description: (§2) As in Example 1, the experimental animals and breeding conditions were ordinary rats (Wistar/Std, eight-week-old males) bred in a breeding room set to a temperature of 23° C., humidity of 50±5%, and a 12-hour light/dark cycle in which lights were turned on at 8 AM and turned off at 8 PM.
(§3) The breeding period was 35 days. Blood was drawn from tail veins every week at 18 o'clock. Measurements of weight, diet intake, testis vitamin K content, testis testosterone concentration, and plasma testosterone concentration were taken. The analysis method was similar to that in Example 1.
Data on testis vitamin K concentration and testosterone concentration was analyzed using the Tukey method. Analysis of changes over time in the blood testosterone concentrations was performed by two-way layout analysis of variance (repeated). In all cases, significant differences was P<0.05.

[4] = Weight and diet intake of rats on experimental diets, Example 2; assay type: in vivo, rat; settings: 75 mg/kg in diet, 35 days; for differences in weight: vs control dietary group (FIG. 5); for differences in diet intake: vs control dietary group (FIG. 6)
Description: as §2, §3

Molecule | tolerable upper intake level [1] [mg] | P450scc protein level (P450scc) | MK-4 concentration in the testes [2] | testis MK-4 concentration [3] | differences in weight [4] | differences in diet intake [4]
Vitamin K | 30 |  |  |  |  | 
CC(C)=CCC/C(C)=C/CC/C(C)=C/CC/C(C)=C/CC1=C(C)C(=O)c2ccccc2C1=O [MK-4, menaquinone-4] |  | significantly higher | significantly high | significantly increased | could not be observed | could not be observed
CC1=C(C/C=C(\C)CCC[C@H](C)CCC[C@H](C)CCCC(C)C)C(=O)c2ccccc2C1=O [vitamin K1, phylloquinone] |  |  |  | significantly increased | could not be observed | could not be observed

From patent US8686049B2, “Agent for increasing testosterone level” (Tohoku University, priority 2006, dated 2014)
